Measurements from patent US8956645B2, “Water-soluble pharmaceutical composition comprising at least one therapeutically active substance having hydrophobic properties and at least one compound selected from among sialoglycosphingolipids, glycosphingolipids or a mixture of sialoglycosphingolipids and glycosphingolipids” (Consejo Nacional de Investigaciones Cientificas y Tecnicas …, priority 2010, dated 2015).

What was measured:
[1] = system: VERO and MA cells; test: Cell viability by MTT assay, non-tumoral cells; assay type: cell-based; conditions: 24 hours
Procedure: FIG. 6: VERO and MA cells of non tumoral origin were incubated with increasing concentrations of: a)-( ? ) Ptx in DMSO, b)-( ? ) micelles of Ptx-GM1 1/25, c)-( ? ) micelles of GM1 and d)-( ? ) micelles of the albumine-Ptx-GM1 complex. Cellular viability was evaluated using MTT assay marker after 24 hs incubation.
(§1) Different cell types, tumoral such as HEP-2 and Hela, and non-tumoral as VERO and MA were incubated in MEM medium containing 2% fetal bovine serum (Natocor-Villa Carlos Paz—Córdoba—Argentina) in a CO2 incubator with 5% CO2, to confluence. Different concentrations of the compositions mentioned below were added to the cell culture: […]
(§2) a)—Ptx in DMSO as positive control b)—Ptx-GM1 micelles 1/25 molar ratio c)—GM1 micelles in equal concentrations as in b), to control the effect of the GM1 itself, and d)—micelles of the albumin-Ptx-GM1 complex
(§3) Cell viability was evaluated by MTT assay after 24 hours of incubation.

[2] = system: HEP-2 and Hela cells; test: Cell viability by MTT assay, tumoral cells; assay type: cell-based; conditions: 24 hours
Procedure: FIG. 7: HEP-2 and HELA cells of tumor origin were incubated with increasing concentrations of: a)-( ? ) Ptx in DMSO, b)-( ? ) Ptx-GM1 micelles 1/25, c)-( ? ) GM1 micelles and d)-( ? ) micelles of the GM1-Ptx-albumine complex. Cellular viability was evaluated using MTT assay after 24 hs incubation.
as §1, §2, §3

With CC(=O)O[C@H]1C(=O)[C@@]2(C)[C@H]([C@H](OC(=O)c3ccccc3)[C@]3(O)C[C@H](OC(=O)[C@H](O)[C@@H](NC(=O)c4ccccc4)c4ccccc4)C(C)=C1C3(C)C)[C@]1(OC(C)=O)CO[C@@H]1C[C@@H]2O [Ptx, paclitaxel] the “concentration producing complete death” value [1] was 100 ng/mL and the “concentration producing complete death” value [2] was 10 ng/mL.
